Counter-ions that a name gives are not always drawn.
Columns and labels:
NCI-H2122 [1] = test: fitted bottom plateau of viability curve, % of DMSO control; higher = less maximal inhibition; extreme values may be limits of the assay
Protocol: (§1)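 CellTiter-Glo proliferation assay in KRAS G12C mutant NCI-H2122 (72 h), SW837 (144 h) and NCI-H358 cells in 384-well plates. Monotherapy dose response was fitted with a four-parameter curve after normalisation to DMSO controls (% of control, PoC). IC50 is the relative IC50, averaged over replicates. Bottom is the fitted lower plateau in %PoC; Max.Conc. is the top dose tested.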

SW837 [2] = test: as above
Protocol: as §1

NCI-H2122 [3] = test: relative IC50 of cell viability (CellTiter-Glo); higher = less potent
Protocol: as §1

NCI-H2122 [4] = test: combination cScore with sotorasib (Bliss gap around IC50) (%PoC); higher = stronger additive effect
Summary of the method: (§2)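 After 24 h in 384-well plates (500 or 800 cells per well), NCI-H2122, NCI-H358 and SW837 cells received concentration matrices and grew for 72 h, except SW837, which grew for 144 h. CellTiter-Glo readings were scaled to vehicle wells and fitted with four-parameter curves. Each score is the averaged Bliss-independence difference (expected minus measured viability) over a region around both monotherapy IC50s, or at top concentrations when no IC50 was reached.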

SW837 [5] = test: as above
Summary of the method: as §2

relative IC50 of cell viability (NCI-H2122 [3]) [µM] | Structure (SMILES) | fitted bottom plateau of viability curve (NCI-H2122 [1]) [%] | fitted bottom plateau of viability curve (SW837 [2]) [%] | combination cScore with sotorasib (NCI-H2122 [4]) | combination cScore with sotorasib (SW837 [5])
9.65 | COc1ccc2nc3ccc(OC)cc3c(SCCCN)c2c1 (top concentration tested 10000 nM) | 59 | 84.2 | – | –
1.23 | C[C@@H](Oc1cc(-c2cnn(C3CCNCC3)c2)cnc1N)c1c(Cl)ccc(F)c1Cl (top concentration tested 10000 nM) | 4.25 | 31.9 | – | –
8.95 | O=[N+]([O-])c1ccc(NCCNc2ncc(-c3ncc[nH]3)c(-c3ccc(Cl)cc3Cl)n2)nc1 (top concentration tested 10000 nM) | 43.5 | 91.7 | – | –
8.09 | CC1(C)CCC(CN2CCN(c3ccc(C(=O)NS(=O)(=O)c4ccc(NCC5CCOCC5)c([N+](=O)[O-])c4)c(Oc4cnc5[nH]ccc5c4)c3)CC2)=C(c2ccc(Cl)cc2)C1 [ABT-199] (top concentration tested 10000 nM) | 65.6 | 95.3 | – | –
3.12 | CO[C@H]1/C=C/C[C@H](C)[C@@H](C)S(=O)(=O)NC(=O)c2ccc3c(c2)N(C[C@@H]2CC[C@H]21)C[C@@]1(CCCc2cc(Cl)ccc21)CO3 [AMG176] (top concentration tested 10000 nM) | 45.9 | 96.3 | – | –
6.06 | COc1cc(OC2CCN(C)CC2)ccc1Nc1ncc2c(n1)n(C1CCCC1)c(=O)n2C [AZ3146] (top concentration tested 10000 nM) | 39.4 | 57.4 | – | –
1.94 | Nc1ncn([C@@H]2O[C@H](CO)[C@@H](O)[C@H]2O)c(=O)n1 [Azacitidine] (top concentration tested 9999.8 nM) | 14.4 | 93 | – | –
– | CC(C)(C)c1ccc(S(=O)(=O)NCc2ccc(C(=O)Nc3cccnc3)cc2)cc1 [STF-31] + C=CC(=O)N1CCN(c2nc(=O)n(-c3c(C)ccnc3C(C)C)c3nc(-c4c(O)cccc4F)c(F)cc23)[C@@H](C)C1 [sotorasib] | – | – | -10.2 | 17.6
– | CNC(=O)c1cc(Oc2ccc(NC(=O)Nc3ccc(Cl)c(C(F)(F)F)c3)cc2)ccn1 [Sorafenib] + C=CC(=O)N1CCN(c2nc(=O)n(-c3c(C)ccnc3C(C)C)c3nc(-c4c(O)cccc4F)c(F)cc23)[C@@H](C)C1 [sotorasib] | – | – | 4.75 | -8.41
– | CCN(CC)CCNC(=O)c1c(C)[nH]c(/C=C2\C(=O)Nc3ccc(F)cc32)c1C [Sunitinib] + C=CC(=O)N1CCN(c2nc(=O)n(-c3c(C)ccnc3C(C)C)c3nc(-c4c(O)cccc4F)c(F)cc23)[C@@H](C)C1 [sotorasib] | – | – | 10.9 | 23
– | Cn1nnc2c(C(N)=O)ncn2c1=O [Temozolomide] + C=CC(=O)N1CCN(c2nc(=O)n(-c3c(C)ccnc3C(C)C)c3nc(-c4c(O)cccc4F)c(F)cc23)[C@@H](C)C1 [sotorasib] | – | – | 6.39 | -4.91
– | C[C@@H]1CCN(C(=O)CC#N)C[C@@H]1N(C)c1ncnc2[nH]ccc12 [Tofacitinib citrate] + C=CC(=O)N1CCN(c2nc(=O)n(-c3c(C)ccnc3C(C)C)c3nc(-c4c(O)cccc4F)c(F)cc23)[C@@H](C)C1 [sotorasib] | – | – | 1.35 | 2.98
– | CC(C)C[C@@H](C(=O)N[C@H](C(=O)OC1CCCC1)c1ccccc1)[C@H](O)C(=O)NO [Tosedostat] + C=CC(=O)N1CCN(c2nc(=O)n(-c3c(C)ccnc3C(C)C)c3nc(-c4c(O)cccc4F)c(F)cc23)[C@@H](C)C1 [sotorasib] | – | – | 10.4 | 31.5
– | CC(=O)Nc1cccc(-n2c(=O)n(C3CC3)c(=O)c3c(Nc4ccc(I)cc4F)n(C)c(=O)c(C)c32)c1 [Trametinib] + C=CC(=O)N1CCN(c2nc(=O)n(-c3c(C)ccnc3C(C)C)c3nc(-c4c(O)cccc4F)c(F)cc23)[C@@H](C)C1 [sotorasib] | – | – | 14.2 | 14.5
– | CC1=C(/C=C/C(C)=C/C=C/C(C)=C/C(=O)O)C(C)(C)CCC1 [Tretinoin] + C=CC(=O)N1CCN(c2nc(=O)n(-c3c(C)ccnc3C(C)C)c3nc(-c4c(O)cccc4F)c(F)cc23)[C@@H](C)C1 [sotorasib] | – | – | 10.5 | 15.7
– | COc1cc2c(NC3CCN(C(C)C)CC3)nc(C3CCCCC3)nc2cc1OCCCN1CCCC1 [UNC0638] + C=CC(=O)N1CCN(c2nc(=O)n(-c3c(C)ccnc3C(C)C)c3nc(-c4c(O)cccc4F)c(F)cc23)[C@@H](C)C1 [sotorasib] | – | – | -0.46 | 9.19
– | CC(C)Nc1cc(-c2c[nH]c(C(=O)N[C@H](CO)c3cccc(Cl)c3)c2)c(Cl)cn1 [Ulixertinib] + C=CC(=O)N1CCN(c2nc(=O)n(-c3c(C)ccnc3C(C)C)c3nc(-c4c(O)cccc4F)c(F)cc23)[C@@H](C)C1 [sotorasib] | – | – | -4.67 | 3.35
– | CS(=O)(=O)c1ccc(-c2cnc(N)c(C(=O)Nc3ccccc3)n2)cc1 [VE-821] + C=CC(=O)N1CCN(c2nc(=O)n(-c3c(C)ccnc3C(C)C)c3nc(-c4c(O)cccc4F)c(F)cc23)[C@@H](C)C1 [sotorasib] | – | – | 6.24 | 6.3
– | CNCc1ccc(-c2cc(-c3nc(-c4ccc(S(=O)(=O)C(C)C)cc4)cnc3N)on2)cc1 [VE-822/VX-970] + C=CC(=O)N1CCN(c2nc(=O)n(-c3c(C)ccnc3C(C)C)c3nc(-c4c(O)cccc4F)c(F)cc23)[C@@H](C)C1 [sotorasib] | – | – | 2.89 | -0.45
– | CCCC(CCC)C(=O)O [Valproic acid] + C=CC(=O)N1CCN(c2nc(=O)n(-c3c(C)ccnc3C(C)C)c3nc(-c4c(O)cccc4F)c(F)cc23)[C@@H](C)C1 [sotorasib] | – | – | -1.96 | -2.1
– | C[C@]1(c2nc3c(C(N)=O)cccc3[nH]2)CCCN1 [Veliparib] + C=CC(=O)N1CCN(c2nc(=O)n(-c3c(C)ccnc3C(C)C)c3nc(-c4c(O)cccc4F)c(F)cc23)[C@@H](C)C1 [sotorasib] | – | – | 18.6 | 7.52
– | CC[C@]1(O)C[C@@H]2CN(CCc3c([nH]c4ccccc34)[C@@](C(=O)OC)(c3cc4c(cc3OC)N(C)[C@H]3[C@@](O)(C(=O)OC)[C@H](OC(C)=O)[C@]5(CC)C=CCN6CC[C@]43[C@@H]65)C2)C1 [Vinblastine] + C=CC(=O)N1CCN(c2nc(=O)n(-c3c(C)ccnc3C(C)C)c3nc(-c4c(O)cccc4F)c(F)cc23)[C@@H](C)C1 [sotorasib] | – | – | 6.11 | 8.44
– | CCC1=C[C@@H]2CN(C1)Cc1c([nH]c3ccccc13)[C@@](C(=O)OC)(c1cc3c(cc1OC)N(C)[C@H]1[C@@](O)(C(=O)OC)[C@H](OC(C)=O)[C@]4(CC)C=CCN5CC[C@]31[C@@H]54)C2 [Vinorelbine] + C=CC(=O)N1CCN(c2nc(=O)n(-c3c(C)ccnc3C(C)C)c3nc(-c4c(O)cccc4F)c(F)cc23)[C@@H](C)C1 [sotorasib] | – | – | 1.79 | 4.13
– | CS(=O)(=O)c1ccc(C(=O)Nc2ccc(Cl)c(-c3ccccn3)c2)c(Cl)c1 [Vismodegib] + C=CC(=O)N1CCN(c2nc(=O)n(-c3c(C)ccnc3C(C)C)c3nc(-c4c(O)cccc4F)c(F)cc23)[C@@H](C)C1 [sotorasib] | – | – | 12.1 | 9.42
– | O=C(CCCCCCC(=O)Nc1ccccc1)NO [Vorinostat] + C=CC(=O)N1CCN(c2nc(=O)n(-c3c(C)ccnc3C(C)C)c3nc(-c4c(O)cccc4F)c(F)cc23)[C@@H](C)C1 [sotorasib] | – | – | 8.52 | 14.9
– | CN[C@H]1CN(c2ccc3c(=O)c(C(=O)O)cn(-c4nccs4)c3n2)C[C@@H]1OC [Vosaroxin] + C=CC(=O)N1CCN(c2nc(=O)n(-c3c(C)ccnc3C(C)C)c3nc(-c4c(O)cccc4F)c(F)cc23)[C@@H](C)C1 [sotorasib] | – | – | 13.3 | 13.2
– | COc1cc2nccc(Oc3ccc(NC(=O)C4(C(=O)Nc5ccc(F)cc5)CC4)cc3)c2cc1OC [XL-184] + C=CC(=O)N1CCN(c2nc(=O)n(-c3c(C)ccnc3C(C)C)c3nc(-c4c(O)cccc4F)c(F)cc23)[C@@H](C)C1 [sotorasib] | – | – | 11.7 | 14

From the supplement of paper PMC11424490
